From BindingDB's records for PubMed 11082457 (Centre De Recherches De Croissy, 2000)

Tests used:
[1] = target: T1, Alpha-1B adrenergic receptor (Homo sapiens, UniProt P35368)
T1 sequence (P35368 whole entry): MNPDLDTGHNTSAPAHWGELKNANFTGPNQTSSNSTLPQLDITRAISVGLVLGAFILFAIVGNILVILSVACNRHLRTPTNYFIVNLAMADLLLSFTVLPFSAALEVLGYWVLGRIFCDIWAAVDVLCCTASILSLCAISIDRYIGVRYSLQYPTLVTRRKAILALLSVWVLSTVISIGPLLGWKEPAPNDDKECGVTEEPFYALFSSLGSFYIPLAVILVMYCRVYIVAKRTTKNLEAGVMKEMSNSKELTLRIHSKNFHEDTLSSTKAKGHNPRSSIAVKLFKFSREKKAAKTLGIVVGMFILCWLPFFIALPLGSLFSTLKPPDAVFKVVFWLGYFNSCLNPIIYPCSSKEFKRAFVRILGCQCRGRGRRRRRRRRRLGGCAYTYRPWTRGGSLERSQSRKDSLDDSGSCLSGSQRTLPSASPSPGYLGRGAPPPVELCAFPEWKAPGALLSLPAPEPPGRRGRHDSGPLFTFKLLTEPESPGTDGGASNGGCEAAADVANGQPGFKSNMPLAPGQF

Nischarin = Nischarin (Rattus norvegicus, UniProt Q4G017)
Sequence of Nischarin (Q4G017 whole entry): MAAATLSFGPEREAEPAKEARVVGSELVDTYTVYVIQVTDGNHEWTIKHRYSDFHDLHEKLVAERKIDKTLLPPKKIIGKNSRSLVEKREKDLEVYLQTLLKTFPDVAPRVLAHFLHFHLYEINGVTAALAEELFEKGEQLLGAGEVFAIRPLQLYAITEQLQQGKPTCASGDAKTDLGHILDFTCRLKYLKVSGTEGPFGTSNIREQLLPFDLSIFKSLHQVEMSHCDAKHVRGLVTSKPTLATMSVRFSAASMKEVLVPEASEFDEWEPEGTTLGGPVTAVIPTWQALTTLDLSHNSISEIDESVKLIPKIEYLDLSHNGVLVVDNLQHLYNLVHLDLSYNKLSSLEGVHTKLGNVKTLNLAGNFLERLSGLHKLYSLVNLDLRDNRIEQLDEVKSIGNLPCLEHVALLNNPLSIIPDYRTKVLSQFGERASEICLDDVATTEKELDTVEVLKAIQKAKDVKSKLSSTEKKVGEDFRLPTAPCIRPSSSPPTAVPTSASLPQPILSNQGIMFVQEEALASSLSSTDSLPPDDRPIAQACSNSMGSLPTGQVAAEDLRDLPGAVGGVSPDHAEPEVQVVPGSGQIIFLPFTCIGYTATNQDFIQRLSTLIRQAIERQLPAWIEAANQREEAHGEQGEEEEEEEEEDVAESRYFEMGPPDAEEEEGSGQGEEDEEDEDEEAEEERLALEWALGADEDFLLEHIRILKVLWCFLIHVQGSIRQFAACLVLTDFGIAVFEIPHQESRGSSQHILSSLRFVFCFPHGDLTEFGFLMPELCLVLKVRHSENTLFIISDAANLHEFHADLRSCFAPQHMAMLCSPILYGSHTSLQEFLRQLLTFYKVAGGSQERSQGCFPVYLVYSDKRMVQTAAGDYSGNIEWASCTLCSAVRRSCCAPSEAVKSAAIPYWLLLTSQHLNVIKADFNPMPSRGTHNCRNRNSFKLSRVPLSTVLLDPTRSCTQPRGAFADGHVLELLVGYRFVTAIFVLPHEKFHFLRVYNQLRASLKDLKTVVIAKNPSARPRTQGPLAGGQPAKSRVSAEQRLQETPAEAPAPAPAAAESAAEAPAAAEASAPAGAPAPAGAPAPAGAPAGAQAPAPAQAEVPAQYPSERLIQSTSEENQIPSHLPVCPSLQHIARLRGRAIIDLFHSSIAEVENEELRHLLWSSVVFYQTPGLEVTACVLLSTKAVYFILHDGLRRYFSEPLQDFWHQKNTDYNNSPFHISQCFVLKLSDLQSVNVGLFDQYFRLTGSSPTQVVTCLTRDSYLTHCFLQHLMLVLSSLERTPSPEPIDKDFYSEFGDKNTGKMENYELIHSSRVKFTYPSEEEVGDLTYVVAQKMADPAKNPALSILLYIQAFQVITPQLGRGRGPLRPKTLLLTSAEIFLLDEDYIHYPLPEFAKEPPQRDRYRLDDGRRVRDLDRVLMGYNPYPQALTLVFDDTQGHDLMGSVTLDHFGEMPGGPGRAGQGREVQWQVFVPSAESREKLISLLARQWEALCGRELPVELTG

[2] = target: T2, Alpha-1D adrenergic receptor (Homo sapiens, UniProt P25100)
T2 sequence (P25100 whole entry): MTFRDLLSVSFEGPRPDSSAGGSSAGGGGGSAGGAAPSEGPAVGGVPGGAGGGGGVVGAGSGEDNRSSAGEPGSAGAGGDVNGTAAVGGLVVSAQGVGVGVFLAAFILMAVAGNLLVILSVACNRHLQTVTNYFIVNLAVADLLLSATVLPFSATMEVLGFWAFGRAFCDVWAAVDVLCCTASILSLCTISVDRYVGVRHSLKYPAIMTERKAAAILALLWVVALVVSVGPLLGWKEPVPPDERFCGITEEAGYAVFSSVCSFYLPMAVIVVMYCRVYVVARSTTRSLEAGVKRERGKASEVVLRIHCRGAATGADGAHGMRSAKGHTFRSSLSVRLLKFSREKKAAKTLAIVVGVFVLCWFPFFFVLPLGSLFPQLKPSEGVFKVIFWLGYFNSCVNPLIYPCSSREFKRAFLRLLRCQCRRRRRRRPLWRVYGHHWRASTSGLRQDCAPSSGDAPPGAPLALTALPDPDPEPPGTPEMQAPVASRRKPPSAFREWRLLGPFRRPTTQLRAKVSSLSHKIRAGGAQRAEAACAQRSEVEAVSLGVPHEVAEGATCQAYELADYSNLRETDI

[3] = target: Sodium-dependent noradrenaline transporter (Homo sapiens, UniProt P23975)
Sequence of Sodium-dependent noradrenaline transporter (P23975 whole entry): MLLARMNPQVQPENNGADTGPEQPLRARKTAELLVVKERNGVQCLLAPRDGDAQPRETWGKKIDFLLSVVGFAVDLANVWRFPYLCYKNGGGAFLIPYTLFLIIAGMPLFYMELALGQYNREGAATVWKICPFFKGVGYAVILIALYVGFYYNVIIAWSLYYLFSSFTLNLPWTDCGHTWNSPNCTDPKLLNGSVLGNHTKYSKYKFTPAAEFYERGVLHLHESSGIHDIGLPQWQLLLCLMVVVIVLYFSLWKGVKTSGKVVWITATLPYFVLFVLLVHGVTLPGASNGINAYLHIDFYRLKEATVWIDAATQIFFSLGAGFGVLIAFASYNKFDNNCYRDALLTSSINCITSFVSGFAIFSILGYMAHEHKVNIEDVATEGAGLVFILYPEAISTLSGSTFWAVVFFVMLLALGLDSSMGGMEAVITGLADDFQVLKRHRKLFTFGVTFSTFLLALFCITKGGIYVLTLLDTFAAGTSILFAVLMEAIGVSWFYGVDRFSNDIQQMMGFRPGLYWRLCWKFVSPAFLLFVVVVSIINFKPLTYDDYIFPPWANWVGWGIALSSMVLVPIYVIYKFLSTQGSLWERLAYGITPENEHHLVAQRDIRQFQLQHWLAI

[4] = target: T3, Amine oxidase [flavin-containing] A (Rattus norvegicus, UniProt P21396)
T3 sequence (P21396 whole entry): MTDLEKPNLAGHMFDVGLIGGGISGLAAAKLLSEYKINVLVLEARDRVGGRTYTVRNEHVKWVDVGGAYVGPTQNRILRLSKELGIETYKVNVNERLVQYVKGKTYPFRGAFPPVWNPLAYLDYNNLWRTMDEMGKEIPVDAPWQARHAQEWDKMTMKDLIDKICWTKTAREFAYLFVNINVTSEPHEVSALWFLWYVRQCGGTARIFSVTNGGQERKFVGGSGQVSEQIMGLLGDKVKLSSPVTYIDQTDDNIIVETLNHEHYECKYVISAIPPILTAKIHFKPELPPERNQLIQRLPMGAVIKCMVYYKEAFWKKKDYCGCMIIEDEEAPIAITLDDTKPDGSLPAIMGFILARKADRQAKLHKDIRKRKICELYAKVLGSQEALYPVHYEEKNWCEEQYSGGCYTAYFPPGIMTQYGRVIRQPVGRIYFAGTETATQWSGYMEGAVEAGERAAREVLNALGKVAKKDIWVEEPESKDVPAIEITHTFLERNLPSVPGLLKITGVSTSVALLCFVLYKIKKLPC

[5] = target: T4, Amine oxidase [flavin-containing] B (Rattus norvegicus, UniProt P19643)
T4 sequence (P19643 whole entry): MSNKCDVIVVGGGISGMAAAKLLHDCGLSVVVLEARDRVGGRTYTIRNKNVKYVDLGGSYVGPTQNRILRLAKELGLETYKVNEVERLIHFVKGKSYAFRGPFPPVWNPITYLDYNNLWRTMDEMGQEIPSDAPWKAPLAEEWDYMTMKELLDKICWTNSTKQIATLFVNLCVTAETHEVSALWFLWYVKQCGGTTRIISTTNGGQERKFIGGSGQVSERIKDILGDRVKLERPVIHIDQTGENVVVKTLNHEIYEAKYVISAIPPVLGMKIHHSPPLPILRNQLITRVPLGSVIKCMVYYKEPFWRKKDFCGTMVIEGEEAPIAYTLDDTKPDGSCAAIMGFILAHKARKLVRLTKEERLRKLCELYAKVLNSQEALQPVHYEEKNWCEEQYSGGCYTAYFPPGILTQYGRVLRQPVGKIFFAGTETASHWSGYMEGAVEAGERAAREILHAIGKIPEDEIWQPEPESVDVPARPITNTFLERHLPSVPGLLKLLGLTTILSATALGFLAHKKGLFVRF

- Ki [1]: 316 nM
- Ki (Nischarin): 1000 nM
- Ki [2]: 126 nM
- Ki [3]: 1000 nM
- Ki [4]: 1000 nM
- Ki [5]: 1000 nM
SMILES: Clc1cccc(Cl)c1N=C1NCCN1 [2-(2,6-dichloroanilino)-2-imidazoline]
